Source: patent publication US5952298A, “Cryptophycins” (priority 1995, dated 1999)
Entries after “also recorded” stand apart in the source; their conditions may differ. Where two headings read alike, the source gives them in different places.

Experiments:
Human Sm Cell L. DMS273 = experiment: In vivo activity, SC DMS273 tumor; settings: Exp 1596; SC Human Sm Cell L. DMS273 SCID; 6 IV inj.; 7.3 mg/kg total dose
Experimental: (§1) Gross log kill is defmed as T-C/3.2 Td where T is the median time in days for the tumors of the treated group to reach 750 mg, C is the median time in days for the tumors of the control group to reach 750 mg, and Td is the tumor volume doubling time. […] An activity rating of +++ to ++++, which is indicative of clinical activity, is needed to effect partial or complete regression of 100-300 mg size masses of most transplanted solid tumors of mice.

[1] = system: colon adenocarcinoma #51 (Colon 51); experiment: In vivo activity, SC Colon 51 tumor; settings: Exp 1636, 7 IV inj., 28.1 mg/kg total dose
[2] = system: LoVo (human colon carcinoma); experiment: Cytotoxicity against LoVo cell line; format: cell-based
[3] = system: Mam 16/Taxol (taxol-resistant mammary #16/C/RP); experiment: In vivo activity, SC Mam 16/Taxol tumor; settings: Exp 1733, 5 IV inj., 16.5 mg/kg total dose
Experimental: as §1

M17/0 (Adr. Sens.) = experiment: In vivo activity, SC M17/0 tumor; settings: Exp 1833; SC M17/0 (Adr. Sens.); 5 IV inj.; 5.4 mg/kg total dose
Experimental: as §1

MX-1 Human Breast = experiment: In vivo activity, SC MX-1 tumor; settings: Exp 1806; SC MX-1 Human Breast; 8 IV inj.; 12 mg/kg total dose
Experimental: as §1

[4] = system: SKOV3 (human ovarian carcinoma); experiment: Cytotoxicity against SKOV3 cell line (Table 2); format: cell-based
[5] = system: murine leukemia (L1210 or P388), murine solid tumor, human solid tumor and low malignancy fibroblast (LML) cells
[6] = system: murine and human tumors implanted in mice
Experimental: as §1

strains of Cryptococcus = settings: found by researchers at Merck; cited from earlier work
LNCaP Human Prostate = experiment: In vivo activity, SC LNCaP tumor; settings: Exp 1841, 6 IV inj., 6.5 mg/kg total dose
Experimental: Gross log kill is defmed as T-C/3.2 Td where T is the median time in days for the tumors of the treated group to reach 750 mg, C is the median time in days for the tumors of the control group to reach 750 mg, and Td is the tumor volume doubling time.

[7] = system: colon adenocarcinoma #38 (Colon 38, C38); settings: Exp 1560; SC Colon 38; 8 IV inj.; 10.3 mg/kg total dose
[8] = system: Mam 16/C (taxol-sensitive mammary #16/C); experiment: In vivo activity, SC Mam 16/C tumor; settings: Exp 1720, 5 IV inj., 13.2 mg/kg total dose
[9] = system: KB (human nasopharyngeal carcinoma); experiment: Cytotoxicity against KB cell line; format: cell-based
H125 Human Adenosq-lung = settings: Exp 1823; SC H125 Human Adenosq-lung; 8 IV inj.; 14.4 mg/kg total dose
Experimental: as §1

[10] = system: A-10 rat aortic smooth muscle cells; format: cell-based
Experimental: A-10 cells were grown to near-confluency on glass coverslips in BME/10% FBS. Compounds in PBS were added to the indicated final concentrations and cells were incubated for an additional 24 hours. For the staining of microtubules and intermediate filaments, the cells were fixed with cold methanol and incubated with PBS containing 10% calf serum to block nonspecific binding sites. Cells were then incubated at 37° C. for 60 min with either monoclonal anti-β-tubulin or with monoclonal anti-vimentin at dilutions recommended by the manufacturer. Bound primary antibodies were subsequently visualized by a 45-minute incubation with fluorescein-conjugated rabbit antimouse IgG. The coverslips were mounted on microscope slides and the fluorescence patterns were examined and photographed using a Zeiss Photomicroscope Ill equipped with epifluorescence optics for fluorescein. […] PBS containing 100 nM TRITC-phalloidin was then added and the mixture was allowed to incubate for 45 min at 37° C. The cells were washed rapidly three times with PBS before the coverslips were mounted and immediately photographed as described above.
After 24 hours, microtubules and vimentin intermediate filaments were visualized by indirect immunofluorescence and microfilaments were stained using TRITC-phalloidin. The morphological effects of each drug were examined. […] Vimentin intermediate filaments were also evenly distributed throughout the cytoplasm, while bundles of microfilaments were concentrated along the major axis of the cell.

[11] = system: tumor (leukemia) and normal cell (CFUGM) lines; experiment: Valeriote assay; format: cell-based; settings: 5 μg/disk
Experimental: ^b N = nonselective towards tumor (leukemia) and normal cell (CFUGM)
LL = lymphocytic leukemia selective (ZL1210 - ZCFUM ≥ 25
ML = acute myelogenous leukemia (AML) selective (ZAML - ZCFUGM

[12] = system: Human ovarian carcinoma cells (SKOV3); experiment: SKOV3 cell proliferation (SRB staining, Example 10); format: cell-based; settings: SKOV3 treated 24 hours with IC50 dose, then drug-free medium
[13] = 24 hours, 2 μM cytochalasin B, 100 nM vinblastine or 10 nM cryptophycin compounds

## COc1ccc(C[C@H]2NC(=O)/C=C/C[C@@H]([C@H](C)[C@H]3O[C@@H]3c3ccccc3)OC(=O)[C@H](CC(C)C)OC(=O)[C@H](C)CNC2=O)cc1Cl [Cryptophycin 1]
Human Sm Cell L. DMS273
  % Body Wt. Loss at Nadir: 0%
  Cures: 0/5
  Log Kill: < 1
  T/C: 27%
[1]
  % Body Wt. Loss at Nadir: -11%
  Cures: 0/5
  Log Kill: 1.3
  T/C: 7%
[2]; Table 1
  LoVo IC50: 0.003 ng/mL
[2]; Table 2
  LoVo IC50: 0.001 ng/mL
[3]
  % Body Wt. Loss at Nadir: 0%
  Cures: 0/4
  Log Kill: 1.8
  T/C: 2%
M17/0 (Adr. Sens.)
  % Body Wt. Loss at Nadir: -10%
  Cures: 0/5
  Log Kill: < 1
  T/C: 23%
MX-1 Human Breast
  % Body Wt. Loss at Nadir: -3%
  Cures: 0/5
  Log Kill: 2.0
  T/C: 3%
[4]
  SKOV3 IC50: 0.026 ng/mL
[5]; 12.5 μg/disk
  Differential in Zone Units, Corbett Assay: > 400 zone units
  Type of Cytotoxicity, Corbett Assay: E/T
[6]
  in vivo activity (in words): active against a broad spectrum of murine and human tumors implanted in mice
[6]; mice
  cause of lethal toxicity observed during testing: leucopenia
[6]; text summary over the tumors named in the sentence
  tumor burden T/C (mean tumor burden in treated animals/mean tumor burden untreated animals): less than 10%
Strains of Cryptococcus
  antifungal activity: very active against strains of Cryptococcus
LNCaP Human Prostate
  % Body Wt. Loss at Nadir: -6%
  Cures: 0/5
  Log Kill: < 1
  T/C: 26%
[7]
  % Body Wt. Loss at Nadir: Gain
  Cures: 0/5
  Log Kill: 1.5
  T/C: 6%
[8]
  % Body Wt. Loss at Nadir: -1%
  Cures: 0/5
  Log Kill: 1.4
  T/C: 5%
[9]; Table 1
  KB IC50: 0.005 ng/mL
[9]; Table 2
  KB IC50: 0.0025 ng/mL
H125 Human Adenosq-lung
  % Body Wt. Loss at Nadir: -15%
  Cures: 0/5
  Log Kill: 1.1
  T/C: 9%
  dead (animals): 1/5

## C=C1[C@@H](C)[C@H]2[C@H](Cc3ccccc3)NC(=O)[C@]23OC(=O)/C=C/[C@H](O)CCC[C@@H](C)C/C=C/[C@H]3[C@@H]1O [Cytochalasin B, cytochalasin B]
[10]; 2 μM cytochalasin B, 24 hours
  effect on microfilaments: complete depolymerization of microfilaments
[10]; [13]
  effect on microtubules: did not affect the distribution of either microtubules or intermediate filaments

## COc1cc([C@@H]2c3cc4c(cc3[C@@H](O[C@@H]3O[C@@H]5CO[C@@H](C)O[C@H]5[C@H](O)[C@H]3O)[C@H]3COC(=O)[C@H]23)OCO4)cc(OC)c1O [VP-16, etoposide, reference compound]
[11]
  Differential in Zone Units, Valeriote Assay: 260 zone units
[5]; 5 μg/disk
  Differential in Zone Units, Corbett Assay: 350 zone units

## CC(=O)O[C@H]1C(=O)[C@@]2(C)[C@H]([C@H](OC(=O)c3ccccc3)[C@]3(O)C[C@H](OC(=O)[C@H](O)[C@@H](NC(=O)c4ccccc4)c4ccccc4)C(C)=C1C3(C)C)[C@]1(OC(C)=O)CO[C@@H]1C[C@@H]2O [taxol, reference compound]
[5]; 0.2 μg/disk
  Differential in Zone Units, Corbett Assay: ≥ 400 zone units
  Type of Cytotoxicity, Corbett Assay: M/H/T
[10]; 10 μM taxol
  microtubule organization in taxol-treated cells: extensively bundled

## CC[C@]1(O)C[C@@H]2CN(CCc3c([nH]c4ccccc34)[C@@](C(=O)OC)(c3cc4c(cc3OC)N(C)[C@H]3[C@@](O)(C(=O)OC)[C@H](OC(C)=O)[C@]5(CC)C=CCN6CC[C@]43[C@@H]65)C2)C1 [vinblastine]
[10]; 3 hours 10 μM taxol, then 100 nM vinblastine or 10 nM cryptophycin compound, 24 hours
  microtubule depolymerization after taxol pretreatment: pretreatment with taxol prevented microtubule depolymerization
[10]; 24 hours, 100 nM vinblastine or 10 nM cryptophycin compounds
  effect on vimentin intermediate filaments: vimentin intermediate filaments collapsed
[10]; [13]
  effect on microtubules: marked depletion of microtubules; also recorded: complete depolymerization of microtubules
[10]; 24 hr treatment (100 nM vinblastine or 10 nM cryptophycins), then 1 hour or 24 hours drug-free medium
  reversibility of microtubule depolymerization after removal of the drug: complete morphological recovery by 24 hour
[12]
  increase in cell number in the 24 hours following removal of the drug: approximately 3 fold
